Assays:
Format in all cases: in vivo
[1] = tested on: Haemaphysalis longicornis; assay: Test Example 11: coated screw tube contact test, Haemaphysalis longicornis ticks; settings: 2 mg compound coated on inner wall of screw tube, non-blood-sucking nymphal ticks, after 2 days
Description: 2 mg of each of the compounds 1-6, 1-10, 1-15, 1-24 or 1-37 to 1-38 was weighed in a screw tube (Maruemu No. 5; 27×55 mm), and 0.2 mL of acetone was added thereto and sealed with a cap to dissolve the compound. The screw tube was rotated and inverted to uniformly coat the liquid onto the whole inner wall of the tube. After removing the cap, the solution was air-dried for about 2 hours, then non-blood-sucking nymphal ticks, Haemaphysalis longicornis (5 ticks/group) were released, and the tube was sealed with the cap. After 2 days, the number of dead insects was counted, and the death rate was calculated according to the following equation: Death rate (%)=100×(Number of dead insects/Number of tested insects)

Aphis gossypii = assay: Test Example 2: soil drench of cucumber seedling, later inoculated with Aphis gossypii; settings: 500 ppm, 5 ml drench at foot of cucumber seedling, inoculated after 7 days, examined 6 days later
Description: The formulations of the compound 1-24 as obtained in Formulation Example 5 was diluted with water, so as to have a concentration of each compound of 500 ppm, to obtain a diluent. On the other hand, a cucumber seedling (the second true leaf stage) planted in a plastic cup was drenched at its foot with 5 ml of the diluent, and kept in a greenhouse at 25° C. for 7 days. On the cucumber leaf surface was inoculated about 30 Aphis gossypii (whole stage), and further kept in the greenhouse for 6 days, then the number of the surviving Aphis gossypii parasitic on the leaves of the cucumber was examined, and the control value was calculated according to the following equation: Control value (%)=(1−(Cb×Tai)/(Cai×Tb))×100 wherein the symbols represent as follows: Cb: the number of the insects in a non-treated section on inoculating insects Cai: the number of the surviving parasitic insects in a non-treated section on observation Tb: the number of the insects in a treated section on inoculating insects Tai: the number of the surviving parasitic insects in a treated section on observation wherein the non-treated section refers to a section where a liquid prepared by diluting the formulation not containing the present compound in Formulation Example 5 with the same amount of water as in the treated section was sprayed.

Blattella germanica = assay: Test Example 9: filter paper with sucrose bait, Blattella germanica; settings: 500 ppm, 0.7 ml on filter paper, male imagoes, after 6 days
Description: The formulation of the compound 1-6 or 1-24 as obtained in Formulation Example 5 was diluted with water, so as to have a concentration of each compound of 500 ppm, to obtain a diluent.
A filter paper having a diameter of 5.5 cm was spread on the bottom of a polyethylene cup having the same diameter and 0.7 ml of the diluent was added dropwise onto the filter paper, and 30 mg of sucrose was uniformly placed as bait. Into the polyethylene cup, 2 male imagoes of Blattella germanica were released, and the cup was sealed with a lid. After 6 days, the life and death of Blattella germanica was examined, the number of dead insects was counted, and the death rate was calculated according to the following equation. Death rate (%)=(Number of dead insects/Number of tested insects)×100

Nilaparvata lugens = assay: Test Example 4: soil drench of rice seedling, Nilaparvata lugens larvae released; settings: 500 ppm, 5 ml drench at foot of rice seedling, third instar larvae released after 7 days, examined 6 days later
Description: The formulation of the compound 1-15 as obtained in Formulation Example 5 was diluted with water, so as to have a concentration of the compound of 500 ppm, to obtain a diluent.
On the other hand, a rice seedling (2 weeks after sowing, the second leaf stage) planted in a plastic cup was drenched at its foot with 5 ml of the diluent, and kept in a greenhouse at 25° C. for 7 days. 20 third instar larvae of Nilaparvata lugens were released, and further kept in the greenhouse for 6 days, then the number of surviving Nilaparvata lugens parasitic on the rice was examined, and the death rate was calculated according to the following equation: Death rate (%)=(1−Surviving insects/20)×100
wherein the non-treated section refers to a section where a liquid prepared by diluting the formulation not containing the present compound in Formulation Example 5 with the same amount of water as in the treated section was sprayed.

| SMILES | Death rate [1] | controlling value (Aphis gossypii) | Death rate (Blattella germanica) | Death rate (Nilaparvata lugens) |
| --- | --- | --- | --- | --- |
| CCSc1cc(C(F)(F)F)ccc1-c1nnc(-c2ccc(C(F)(F)F)cn2)s1 [Compound 1-10] | 100% |  |  |  |
| CCS(=O)(=O)c1cccnc1-c1noc(-c2ccc(C(F)(F)F)s2)n1 [Compound 1-37] | 100% |  |  |  |
| CCS(=O)(=O)c1ccccc1-c1noc(-c2cc(C(F)(F)F)cc(C(F)(F)F)c2)n1 [Compound 1-24] | 100% | ≥ 90% | 100% |  |
| CCSc1cc(C(F)(F)F)ccc1-c1nc(-c2ccc(C(F)(F)F)cn2)no1 [Compound 1-6] | 100% |  | 100% |  |
| CCS(=O)(=O)c1cccnc1-c1noc(-c2cc(C(F)(F)F)cc(C(F)(F)F)c2)n1 [Compound 1-15] | 100% |  |  | ≥ 90% |
| CCS(=O)(=O)c1cccnc1-c1noc(-c2cc(Cl)cc(Cl)c2)n1 [Compound 1-38] | 100% |  |  |  |
